Measured values reported in patent publication US20110152379A1, “COMPOSITION FOR CONTROL OF AGING AND/OR EXTENSION OF LIFE, CONTAINING DAPSONE AS ACTIVE INGREDIENT” (priority 2008, published 2011).

Assays:
[1] = test system: calcium; test: Calcium amount in a cell, Fluo-4; type: cell-based; conditions: human diploid fibroblast, 1 mM PQ, FIG. 27
Description: HDF cell was cultured at 96-well plate and the calcium in cell was measured by using Fluo-4AM. […] The amount of Calcium in a cell was measured by using Fluo-4 (5 uM) that is a fluorescent material for labeling calcium and is well passed through a cell. The cell was cultured at 37° C. for 30 minutes and then maintained at a room temperature for 30 minutes without light in order for a complete de-esterification of AM ester in a cell: The fluorescent material that was left was removed except a cell by using HBSS containing 20 mM of HEPES (pH 7.4), and 100 ul of HBSS was added into wells containing cells, respectively. The fluorescent signal was measured at 494 nm for the excitation wavelength and 516 nm for the emission wavelength by using the multi-well fluorescence plate Eclipse fluorescence spectrophotometer (Varian, Calif., USA). The result was shown as Relative fluorescence units (RFUs).

[2] = test system: SOD2; test: Western blot of SOD2 amount in human diploid fibroblast; type: cell-based; conditions: various concentrations of DDS, FIG. 25B
Description: Trolox that is well known as a water-soluble vitamin E was used as a positive control.
The isolated sample was transferred to a nitrocellulose and analyzed through Western Blot using MS601 (Total OXPHOS Complexes Detection Kit, MitoSciences, containing antibodies against SDH30 subunit of complex II (5 μg/ml), Core2 subunit of complex III (0.2 μg/ml), COXII subunit of complex IV (2 μg/ml), and subunit α of F1-ATPase of complex V (0.2 μg/ml)), PCKpan-p, PCKα/β-p, PKCδ-p (Phospho-PKC antibody Sampler Kit, Cell Signaling Technology), PKC α, PCKβ, PKCδ (Life Technologies), β-Actin (Sigma), and the like. The measurement was performed by using a horseradish […] secondary antibodies (Zymed) and ECL (Pierce). The results were shown through visualizing by using Autoradiographic film (Image Reader, LAS-3000Fujifilm, Japan).

[3] = test system: pyruvate kinase; test: Pyruvate kinase activity in vivo (worms that fed on DDS); parameters: species or system C. elegans; conditions: FIG. 16B
Description: PK activity was analyzed through the decrease degree of absorbance at 340 nm by using the change result from pyruvate and NADH to lactate and NAD by lactate dehydrogenase (LDH). The pyruvate and ATP used for the above process were produced from phosphoenolpyruvate (PEP) and ADP by PK. The analysis in vitro was measured by adding directly DDS along with PK to the above reaction mixture and the analysis in vivo was measured by adding worms that fed on DDS.
Samples were homogenized by rupturing C. elegans with glass bead Precellys 24 homogenizer, twice for 20 seconds, at 5000 rpm in a 100 mM potassium phosphate buffer, pH 7.6, at 37° C. A CHAPS was added to the homogenized sample to be 1% of the final concentration and then centrifuged at 15000 g for 20 minutes. The measurement of pyruvate kinase(PK) activity was performed at 37° C. by adding 300 uL of the reaction mixture contained 100 mM potassium phosphate buffer at pH 7.6 and 37° C., 100 mM MgSO4, 1.3 mM β-NADH, 5000 units/mL of lactate dehydrogenase (LDH), 2 mM adenosine diphosphate (ADP) and 17 mM phosphoenolpyruvate (PEP) into the sample. The change of oxidation degree of NADH was measured at 340 nm of absorbance. PK 1 unit was defined as the change into 1.0 umole of pyruvate per a minute at pH 7.6 and 37° C. […] Type I pyruvate kinase (Sigma) of rabbit muscle was used for in vitro experiment.

For `Nc1ccc(S(=O)(=O)c2ccc(N)cc2)cc1` [DDS, 4,4′-diaminodiphenylsulfone], the “amount of calcium increased by PQ” value [1] was “decreases”, the “amount of SOD2” value [2] was “decreases” and the “biochemical activity of PK in vivo” value [3] was “suppresses”.
